Consider six compounds from patent publication US11649242B2, “Pyrrolopyrrole compositions as pyruvate kinase (PKR) activators” (FORMA Therapeutics, Inc., priority 2017, dated 2023).

For orientation: AC50 means the concentration giving half of the maximal activity seen.

SMILES strings stand for the structures. Bounds are passed on as bounds.

What all share (assay type): biochemical
The target in one test is PKR(wt) (Homo sapiens, UniProt P30613). As to the kind of experiment: Luminescence Assay Protocol (Kinase Glo Plus), PKR(Wt/without FBP). To be noted: without FBP; for activation at 1.54 µM: compound 1.54 μM, read-out: I - AC50 LUM KGP woFBP % Fold @ 1.54 μM mean; for AC50: gmean, read-out: G - AC50 LUM KGP woFBP AC50 μM gmean; for Emax: highest % fold increase at any concentration, read-out: H - AC50 LUM KGP woFBP MAX % FOLD mean. Here is the method:
(§1) Example 47: PKR(Wt/without FBP), PKR(G332S/with FBP), PKR(R510Q/without FBP)
(§2) The phosphorylation of Adenosine-5′-diphosphate (ADP) by various mutants of PKR was determined by the Kinase Glo Plus Assay (Promega) in the presence or absence of FBP [D-Fructose-1,6-diphosphate; BOC Sciences, CAS: 81028-91-3] as follows. Unless otherwise indicated, all reagents were purchased from Sigma-Aldrich. All reagents were prepared in buffer containing 50 mM Tris-HCl, 100 mM KCl, 5 mM MgCl2, and 0.01% Triton X100, 0.03% BSA, and 1 mM DTT. Enzyme and PEP [Phospho(enol) pyruvic acid] were added at 2× to all wells of an assay-ready plate containing serial dilutions of test compounds or DMSO vehicle. Final enzyme concentrations for PKR(wt), PKR(R510Q), and PKR(G332S) were 0.8 nM, 0.8 nM, and 10 nM respectively. Final PEP concentration was 100 μM. The Enzyme/PEP mixture was incubated with compounds for 30 minutes at RT before the assay was initiated with the addition of 2×ADP [Adenosine-5′-diphosphate] and KinaseGloPlus. Final concentration of ADP was 100 μM. […] For assays containing FBP, that reagent is added at 30 μM upon reaction initiation. Reactions were allowed to progress for 45 minutes at RT until luminescence was recorded by the BMG PHERAstar FS Multilabel Reader. All compounds were tested in triplicate at concentrations ranging from 42.5 μM to 2.2 nM in 0.83% DMSO.
(§3) Luminescence values were converted to % Fold increase by normalizing to the average of the DMSO control and multiplying by 100. Max, min, slope and AC50 were determined by the standard four parameter fit algorithm of ActivityBase XE Runner. Compounds were evaluated with three parameters—AC50, MAX % Fold, and % Fold@1.54 μM (FIG. 1). The AC50 value for a compound is the concentration […] corresponding to the midway between the maximum and minimum values of the four parameter logistic curve fit (i.e., at which the % fold increase along the four parameter logistic curve fit is halfway between MAX % Fold and MIN % Fold (% Fold Midpoint)), MAX % Fold is the highest fold increase observed at any concentration of compound, and % Fold@1.54 μM is the fold increase at a compound concentration of 1.54 μM. The parameter % Fold@1.54 μM was selected to capture elements of both the AC50 and MAX % Fold and to provide a ranking based on both potency and effect. The compound concentration of 1.54 μM was chosen as one that can optimally differentiate the set of compounds based on the range of activities observed.
(§4) As set forth in Tables 6 and 7 below, AC50 values (columns A, D, G) are defined as follows: ≤0.1 μM (+++); >0.1 μM and ≤1.0 μM (++); >1.0 μM and ≤40 μM (+); >40 μM (0). Max % FOLD values (columns B, E, H) are defined as follows: ≤75% (+); >75% and ≤250% (++); >250% and ≤500% (+++). % Fold@1.54 μM values (columns C, F, I) are defined as follows: ≤75% (+); >75% and ≤250% (++); >250% and ≤500% (+++).
A general note: Kinase-Glo reads ATP consumption through a luciferase reaction.

The next test has as its target PKR(R510Q) (Homo sapiens, UniProt P30613, R510Q). As to the kind of experiment: Luminescence Assay Protocol (Kinase Glo Plus), PKR(R510Q/without FBP). The settings on record: PKRR510Q, without FBP; for activation at 1.54 µM: compound 1.54 μM, read-out: F - AC50 LUM KGP woFBP % Fold @ 1.54 μM mean; for AC50: gmean, read-out: D - AC50 LUM KGP woFBP AC50 μM gmean; for Emax: highest % fold increase at any concentration, read-out: E - AC50 LUM KGP woFBP MAX % FOLD mean. Here is the method:
as §1, §2, §3, §4

The target of the next test is PKR(G332S) (Homo sapiens, UniProt P30613, G332S). As to the kind of experiment: Luminescence Assay Protocol (Kinase Glo Plus), PKR(G332S/with FBP). The settings on record: PKRG332S, with FBP; for activation at 1.54 µM: compound 1.54 μM, read-out: C - AC50 LUM KGP FBP % Fold @ 1.54 μM mean; for AC50: gmean, read-out: A - AC50 LUM KGP FBP AC50 μM gmean; for Emax: highest % fold increase at any concentration, read-out: B - AC50 LUM KGP FBP MAX % FOLD mean. How it is done:
as §1, §2, §3, §4

Chain of PKR(G332S) (P30613 whole entry G332S): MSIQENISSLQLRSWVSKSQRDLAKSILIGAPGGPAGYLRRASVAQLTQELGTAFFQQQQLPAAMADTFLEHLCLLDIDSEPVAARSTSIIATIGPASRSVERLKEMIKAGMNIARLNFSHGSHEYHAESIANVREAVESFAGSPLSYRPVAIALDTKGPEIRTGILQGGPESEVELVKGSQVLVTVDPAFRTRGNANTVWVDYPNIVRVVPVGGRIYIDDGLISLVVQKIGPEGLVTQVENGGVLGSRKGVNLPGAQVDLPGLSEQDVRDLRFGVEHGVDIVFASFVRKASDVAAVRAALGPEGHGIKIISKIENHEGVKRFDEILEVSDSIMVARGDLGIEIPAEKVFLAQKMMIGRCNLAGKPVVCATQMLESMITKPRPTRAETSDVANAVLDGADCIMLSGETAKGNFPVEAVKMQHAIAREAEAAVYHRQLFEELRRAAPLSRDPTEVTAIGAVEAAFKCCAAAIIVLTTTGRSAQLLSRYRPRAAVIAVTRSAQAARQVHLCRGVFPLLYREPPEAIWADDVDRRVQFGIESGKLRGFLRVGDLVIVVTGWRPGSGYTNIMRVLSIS
Chain of PKR(R510Q) (P30613 whole entry R510Q): as the sequence (P30613 whole entry G332S) above, with S332G, R510Q counted along it
Chain of PKR(wt) (P30613 whole entry): as the sequence (P30613 whole entry G332S) above, with S332G counted along it

As to `CC(C)(CO)C(=O)N1CC2=C(C1)CN(S(=O)(=O)c1ccc3c(c1)NCCO3)C2` [Example 37, 1-(5-((3,4-dihydro-2H-benzo[b][1,4]oxazin-6-yl)sulfonyl)-3,4,5,6-tetrahydropyrrolo[3,4-c]pyrrol-2(1H)-yl)-3-hydroxy-2,2-dimethylpropan-1-one], at PKR(wt), the activation at 1.54 µM is 75 to 250%, the half-maximal activity concentration (AC50) lay within 0.1 to 1 µM and the Emax is 75 to 250%. On PKR(R510Q), the activation at 1.54 µM is 250 to 500%, the concentration at half-maximal activity (AC50) is not above 0.1 µM and the Emax fell in the range of 250 to 500%. For the same compound, at PKR(G332S), the activation at 1.54 µM fell in the range of 75 to 250%, the concentration at half-maximal activity (AC50) was more than 40 µM and the Emax lay in the range of 75 to 250%.
As to `COCC1(C(=O)N2CC3=C(C2)CN(S(=O)(=O)c2ccc4c(c2)NCCO4)C3)CC1` [Example 36, (5-((3,4-dihydro-2H-benzo[b][1,4]oxazin-6-yl)sulfonyl)-3,4,5,6-tetrahydropyrrolo[3,4-c]pyrrol-2(1H)-yl)(1-(methoxymethyl)cyclopropyl)methanone], on PKR(wt), the activation at 1.54 µM is 75 to 250%, the AC50 fell in the range of 0.1 to 1 µM and the Emax was 75 to 250%. Further, at PKR(R510Q), the activation at 1.54 µM was in the range of 75 to 250%, the AC50 is 1 to 40 µM and the Emax was in the range of 75 to 250%. Also, on PKR(G332S), the activation at 1.54 µM lay in the range of 75 to 250%, the half-maximal activity concentration (AC50) is more than 40 µM and the Emax was in the range of 75 to 250%.
As to `O=C(C(CO)c1ccccc1)N1CC2=C(C1)CN(S(=O)(=O)c1ccc3c(c1)OCCO3)C2` (stereo not drawn) [Example 18, 1-(5-((2,3-dihydrobenzo[b][1,4]dioxin-6-yl)sulfonyl)-3,4,5,6-tetrahydropyrrolo[3,4-c]pyrrol-2(1H)-yl)-3-hydroxy-2-phenylpropan-1-one], on PKR(R510Q), the activation at 1.54 µM was in the range of 75 to 250%, the AC50 was not above 0.1 µM and the Emax lay in the range of 75 to 250%. Besides, on PKR(G332S), the activation at 1.54 µM lay within 75 to 250%, the AC50 is more than 40 µM and the Emax lay within 75 to 250%.
In the case of `COCCC(=O)N1CC2=C(C1)CN(S(=O)(=O)c1ccc3c(c1)OCCO3)C2` [Example 57, 1-(5-((2,3-dihydrobenzo[b][1,4]dioxin-6-yl)sulfonyl)-3,4,5,6-tetrahydropyrrolo[3,4-c]pyrrol-2(1H)-yl)-3-methoxypropan-1-one], on PKR(R510Q), the activation at 1.54 µM was 75 to 250%, the AC50 was in the range of 0.1 to 1 µM and the Emax lay in the range of 75 to 250%. For the same compound, at PKR(G332S), the activation at 1.54 µM was in the range of 75 to 250%, the AC50 was not above 0.1 µM and the Emax lay within 75 to 250%.
Consider `COCCC(=O)N1CC2=C(C1)CN(S(=O)(=O)c1ccc3occc3c1)C2` [Example 58, 1-(5-(benzofuran-5-ylsulfonyl)-3,4,5,6-tetrahydropyrrolo[3,4-c]pyrrol-2(1H)-yl)-3-methoxypropan-1-one], for which, at PKR(R510Q), the activation at 1.54 µM lay within 75 to 250%, the AC50 lay in the range of 0.1 to 1 µM and the Emax fell in the range of 250 to 500%. Moreover, at PKR(G332S), the activation at 1.54 µM fell in the range of 75 to 250%, the AC50 is not above 0.1 µM and the Emax lay in the range of 75 to 250%.
In the case of `O=C(C1COCCN1)N1CC2=C(C1)CN(S(=O)(=O)c1ccc3ncsc3c1)C2` (stereo not drawn) [Example 56, (5-(benzo[d]thiazol-6-ylsulfonyl)-3,4,5,6-tetrahydropyrrolo[3,4-c]pyrrol-2(1H)-yl)(morpholin-3-yl)methanone], at PKR(R510Q), the activation at 1.54 µM is 75 to 250%, the half-maximal activity concentration (AC50) fell in the range of 1 to 40 µM and the Emax was 75 to 250%. Also, on PKR(G332S), the activation at 1.54 µM lay in the range of 75 to 250%, the AC50 is more than 40 µM and the Emax is 75 to 250%.
